Measurements taken from the METLIN SMRT retention time set (Domingo-Almenara et al. 2019).

Test: gradient 5% acetonitrile 3 min, to 50% in 2 min, to 85% in 15 min, held 3 min, 100 µL/min
Settings: column: Zorbax Extend-C18 2.1 x 50 mm; eluents: water / acetonitrile, 0.1% formic acid
Summary of the method: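 The system's dead and dwell volumes were 40 μL and 900 μL, with a Zorbax Extend-C18 column (2.1 × 50 mm, 1.8 μm) run at 100 μL/min in water and acetonitrile containing 0.1% formic acid each. Pure standards were analyzed in mixtures of ~100 molecules by HPLC–quadrupole time-of-flight mass spectrometry in positive and negative ionization mode. Retention time was assigned from computationally picked, manually inspected adduct peaks.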

| RP-LC retention time | Compound |
| --- | --- |
| 1220 s | Cn1cccc1C(=O)N1CC(Oc2cccc(-c3nc(-c4ccccc4)no3)c2)C1 |
| 652 s | CCOC(=O)C1=C(CN(C)Cc2ccccc2)NC(=O)NC1c1ccccc1 (centres undefined) |
| 694 s | Clc1ccc2ncnc(NCc3ccc4c(c3)OCO4)c2c1 |
| 692 s | c1ccc(Cn2c(-c3ccc(OC[C@H](C4CCNCC4)n4c(-c5ccccc5)nc5ccccc54)cc3)nc3ccccc32)cc1 |
| 749 s | Cc1nc2cc(N3CC(C(=O)N4CCN(c5ccc(F)cc5)CC4)CC3=O)ccc2o1 (centres undefined) |
| 747 s | O=C(c1ccc(F)cc1)N(CC1CCOC1)C1CC1 (centres undefined) |
| 681 s | CC1CCN(C(=O)c2cc(S(=O)(=O)N3CCC(C(=O)NC4CC4)CC3)cn2C)CC1 |
| 696 s | O=C(NCc1cccs1)c1ccc(N2CCCCS2(=O)=O)cc1 |
| 1050 s | O=C(NCCc1c[nH]c2ccccc12)c1noc2c1CCc1sccc1-2 |
| 727 s | O=C(c1ccc(-c2c(-c3ccc(F)cc3)ncn2C2CCCC2)o1)N1CCN(c2ncccn2)CC1 |
| 696 s | COc1ccc(-c2cc(NS(C)(=O)=O)n(C3CCS(=O)(=O)C3)n2)cc1 (centres undefined) |
| 844 s | Cc1cccnc1NC(=O)C1CCN(S(=O)(=O)c2ccc3c(c2)sc(=O)n3C(C)C)CC1 |
| 657 s | Cc1nn(-c2ccccc2)c2c1N(CCCC(=O)NCCC(C)C)C(=O)CS2 |
| 965 s | O=C(Nc1ccc(F)cc1)N1CCCC1c1nc(-c2cccc(F)c2)no1 (centres undefined) |
| 1250 s | O=C(Nc1cccc(Br)c1)C1CCCN(c2ncc(-c3ccc(F)cc3)cn2)C1 (centres undefined) |
| 803 s | CCCNC(=O)CN1C(=O)CCCc2cc(S(=O)(=O)N3CCCCCC3)ccc21 |
| 655 s | Cc1ccn2cc(-c3ccc(NC(=O)c4ccc([N+](=O)[O-])cc4)cc3)nc2n1 |
| 1190 s | CCOc1nc2ccccc2nc1N1CCCC(C(=O)Nc2ccc(F)cc2)C1 (centres undefined) |
| 838 s | COc1ccc(Cl)cc1NC(=O)CN1C(=O)NC2(CCCCC2C)C1=O (centres undefined) |
| 665 s | CCN1CCN(C(=O)c2nnc(-c3ccc(S(=O)(=O)N4CCCCC4)cc3)o2)CC1 |
| 980 s | O=C(CCc1cccc2[nH]ccc12)N1CCN(c2cccc(Cl)c2)CC1 |
| 946 s | Cc1ccc(Cn2nc(C(=O)N3CCCc4cc(C)ccc43)ccc2=O)cc1 |
| 861 s | CCNC(=O)C1CCN(c2nc3ccc(-c4ccc(F)cc4)nc3s2)CC1 |

| RP-LC retention time | Compound |
| --- | --- |
| 582 s | Cc1cc(C(=O)NCCN2CCOCC2)c2cc(Br)ccc2n1 |
| 849 s | COCCN1C(=O)Cc2ccccc2C1C(=O)N1CCN(c2cccc(Cl)c2)CC1 (centres undefined) |
| 586 s | Cc1ccc(CNC(=O)C2CCN(C(=O)c3cc(-c4cccnc4)n[nH]3)CC2)o1 |
| 659 s | CCNc1cc(N2CCC(CCC(=O)NCc3cccc(C)c3)CC2)ncn1 |
| 1010 s | O=C(NCc1ccc(F)cc1Cl)c1cc(C2CC2)n2nccc2n1 |
| 604 s | CCC1CCCCN1CCCNC(=O)C1CCCN(c2ncnc3c2nc2n3CCCCC2)C1 (centres undefined) |
| 698 s | COc1cccc(CNC(=O)CCc2c(-c3ccc(Br)cc3)nc3ccccn23)c1 |
| 705 s | COc1ccc(C(=O)N2CC(n3cc(COCC4CC4)nn3)C2)c(OC)c1 |
| 757 s | O=C(COc1ccc(Cl)cc1)Nc1ccc(-c2nnc3n2CCCC3)cc1 |
| 876 s | CCOc1ccc(C(=O)NCc2noc(-c3ccc(OC)cc3)n2)cc1 |
| 846 s | Cc1ccc(N2CCC(NC(=O)Nc3ccc(F)cc3)C2=O)cc1 (centres undefined) |
| 596 s | CC(=O)N1CCC(c2noc(-c3ccccn3)n2)C1 (centres undefined) |
| 693 s | CCCNC(=O)C1CCCN(c2nnc(C)c3c(C)n(-c4ccc(Cl)cc4)nc23)C1 (centres undefined) |
| 888 s | Cc1ccc(-c2ccc(N3CCCC(C(=O)NCCC4=CCCCC4)C3)nn2)cc1C (centres undefined) |
| 1130 s | CCCC(C)NC(=O)c1ccc(Cl)c(Cl)c1 (centres undefined) |
| 1100 s | O=S(=O)(c1ccccc1Cl)N1CCc2nc(-c3ccc(F)cc3)ncc2C1 |
| 1160 s | COc1ccc2c(c1)C1CC(C)(O2)N(C)C(=O)C1S(=O)(=O)c1ccc(C(C)C)cc1 (centres undefined) |
| 840 s | CCOC(=O)N1CCC2(CC1)OC(=O)C(C)=C2C(=O)Nc1ccc(F)cc1F |
| 734 s | CCC(C)NC(=O)c1ccc2c(c1)N(C)C(=O)CS2 (centres undefined) |
| 911 s | Cn1c(=O)c(N2CCN(C(=O)c3ccc(Br)cc3)CC2)nc2cccnc21 |
| 753 s | CCc1ccc(CNC(=O)CCc2c(-c3ccc(Br)cc3)nc3ccccn23)cc1 |
| 583 s | O=C(Cn1c(CN2CCCCC2)nc2ccccc21)N1CCOCC1 |
| 736 s | COC(=O)c1c(NCc2ccc(OC)c(OC)c2)c2cccc(Cl)c2[nH]c1=O |

| RP-LC retention time | Compound |
| --- | --- |
| 728 s | COC1CCC12CCN(C(=O)c1sc(C)nc1C)CC2 (centres undefined) |
| 611 s | CC(C(=O)NCCCN1CCCCCC1)n1c(=O)c(C(F)(F)F)nc2ccccc21 (centres undefined) |
| 951 s | CC(C)CC(=O)N1C[C@H](c2nc(-c3ccccc3)no2)[C@@H](C)C1 |
| 819 s | COc1ccc(C)cc1NC(=O)N1C[C@@H]2C[C@H]1C[C@@H]2NC(=O)c1cccs1 |
| 889 s | CS(=O)(=O)N1CCN=C1SCc1ccc(Cl)c(Cl)c1 |
| 842 s | O=c1n(CCOc2ccccc2)nc2ccc(S(=O)(=O)N3CCCC3)cn12 |
| 817 s | CS(=O)(=O)N1CCC(C(=O)Nc2ccc(F)cc2)Oc2ccccc21 (centres undefined) |
| 761 s | O=C(C1=NN(Cc2ccc(F)cc2)c2ccccc2S1(=O)=O)N1CCOCC1 |
| 918 s | O=C(NCCOc1ccccc1)c1ccccc1C(=O)c1ccccc1 |
| 689 s | CCOC(=O)Cc1csc(NC(=O)C2CC(=O)N(c3n[nH]c4ccccc34)C2)n1 (centres undefined) |
| 589 s | CC1=C(c2ccccc2)S(=O)(=O)N=C1N1CCCN(C(=O)Cn2ccnc2C)CC1 |
| 753 s | Cc1ccc(NC(=O)Cc2cccc3ccccc23)cc1N1CCCC1=O |
| 838 s | CCc1ccccc1NC(=O)C1CCN(S(=O)(=O)c2ccc3c(c2)NC(=O)C(C)O3)CC1 (centres undefined) |
| 1110 s | O=S(=O)(c1ccccc1Cl)N1CCCC1Cc1noc(-c2ccccc2)n1 (centres undefined) |
| 534 s | O=C(NCC(F)(F)F)c1ccc(=O)[nH]c1 |
| 593 s | CCN1C(=O)C(CC(=O)NCCOC)Sc2ncccc21 (centres undefined) |
| 603 s | O=C(NCC1CCN(Cc2cccs2)CC1)C(=O)Nc1ccc(C(F)(F)F)cc1 |
| 1020 s | O=C(c1ccc(Br)o1)N1CCN(c2ccc(-c3noc(C4CC4)n3)cc2)CC1 |
| 950 s | O=C(c1ccccc1OCc1nc(-c2ccccc2)no1)N1CCCCC1 |
| 866 s | COc1ccc(-c2nnc(COc3cccc(NC(=O)c4ccoc4)c3)o2)cc1 |
| 1090 s | Cc1ccc(OCc2nnc(SCC(=O)Nc3nc(-c4ccccc4)c(C)s3)o2)cc1 |
| 926 s | CCOc1ccc(NC(=O)CN2C(=O)CCc3cc(Br)ccc32)cc1 |
| 543 s | Cc1nnc2cc(N3CCN(Cc4cn[nH]c4-c4cccs4)CC3)cnn12 |

| RP-LC retention time | Compound |
| --- | --- |
| 1040 s | CC(C)(C)c1cc(N2CCN(c3ccccn3)CC2)n2ncc(-c3ccccc3)c2n1 |
| 1190 s | Cc1ccc(-c2nc(-c3ccc(S(=O)(=O)N4CCOCC4)cc3)no2)cc1F |
| 896 s | Cc1ccc(CN2N=C(C(=O)N3CCOCC3)S(=O)(=O)c3ccc(Cl)cc32)cc1 |
| 714 s | Cn1nc(C(=O)Nc2ccc3c(c2)C(=O)N2CCC[C@H]2C(=O)N3)c2ccccc21 |
| 1120 s | CCc1ccc(-c2noc(CN3C(=O)COc4ccccc43)n2)cc1 |
| 1290 s | CCOc1nc2ccccc2nc1N1CCCC(C(=O)Nc2c(Cl)cccc2Cl)C1 (centres undefined) |
| 793 s | CC(C)NC(=O)c1cccc(N2C(=O)NC3CC2(C)Oc2ccc(Br)cc23)c1 (centres undefined) |
| 846 s | CC1Oc2ccc(S(=O)(=O)N3CCC(C(=O)NCc4ccc(Cl)cc4)CC3)cc2NC1=O (centres undefined) |
| 937 s | O=C(Nc1ccc(Br)cc1F)NC1CCN(c2ccc(F)cc2)C1=O (centres undefined) |
| 630 s | Cc1ccc(Cn2c(C)c(CNCCc3ccco3)c(C(=O)O)c2C)cc1 |
| 943 s | CCOC(=O)c1cc(S(=O)(=O)N2CCCC2C(=O)N(CC)c2cccc(C)c2)cn1C (centres undefined) |
| 970 s | CCOC(=O)c1ccc(N2C(=O)[C@@H]3Cc4ccccc4CN3C2=O)cc1 |
| 647 s | O=C(Nc1cccc(-c2ccc(N3CCCC3)nn2)c1)c1c(F)cccc1F |
| 959 s | CCCCNC(=O)Cn1c(C(=O)OC)cc2oc3ccccc3c21 |
| 816 s | CC1(C(=O)NCc2ccccc2)Cn2cnc(C(=O)NCc3ccccc3Cl)c2C(=O)N1C1CC1 (centres undefined) |
| 696 s | Cc1ccc(-c2ccc(N3CCCC(C(=O)NC4CCCC4)C3)nn2)cc1 (centres undefined) |
| 818 s | CCCN(CC1CCOC1)C(=O)Nc1cccc(C)c1C (centres undefined) |
| 972 s | CC1(C(=O)NCc2ccc(F)cc2)CCCN(C(=O)Nc2ccc(F)c(Cl)c2)C1 (centres undefined) |
| 714 s | Brc1cccc(-c2nc3ccccn3c2Nc2ccc3c(c2)OCCO3)c1 |
| 709 s | CC1CCCN(C(=O)c2cn(-c3cc(N4CCOCC4)ncn3)cn2)C1 (centres undefined) |
